# In US12233047B2, “Pharmaceutical combination and use thereof” (ASCENTAGE PHARMA (SUZHOU) CO., LTD., priority 2019, dated 2025):
# Test system: Human AML cell line MV-4-11 (FLT3-ITD positive and wild type TP53 gene)
# Experiment: Human MV-4-11 AML subcutaneous mouse xenograft model
# Type: in vivo
# Conditions: MV-4-11 subcutaneous xenograft, Compound 23 10 mg/kg, Compound C 30 mg/kg
# Description: The formulation of Compound C was prepared as homogenous suspension in 0.2% HPMC using a mortar. The drug suspension was prepared every three days or once a week and placed at 4° C. when not in use. Before use, the drug suspension was placed at room temperature and shaken to mix well. The formulation of Compound C was administered to mice via p.o. in a volume of 10 mL/kg. […] The drug suspension was prepared once every other day and placed at 4° C. when not in use. Before use, the drug suspension was placed at room temperature and shaken well. […] MV-4-11 cells (Human AML cell line MV-4-11 (FLT3-ITD positive and wild type TP53 gene)) were maintained in IMDM (Cat. C12440500BT, GIBCO), with 10% fetal bovine serum (Cat. 10099-141, GIBCO), 1% L-glutamine, 100 U/mL penicillin G and 100 μg/mL streptomycin (Cat. GNM15140, Hangzhou Geno Biomedical Technology Co., Ltd). Cells were incubated at 37° C. in a humidified incubator with 5% CO2. Six to eight weeks old, female, NOD SCID and BALB/c nude mice were used. Animals were obtained from Vital River Laboratories (VRL, Beijing, China, license number SCXK(J) 2012-0001 and SCXK(J) 2016-0006). The body weights were 17-24 g. Randomization was conducted when the size of xenograft tumors reached 100-150 mm^3. Based on the size of the tumor and body weight, animals were randomly assigned into experimental groups. […] MV-4-11 subcutaneous xenograft models were established by subcutaneously injecting tumor cells (1×10^7 cells (50% Matrigel)/mouse) into the right flank of the mouse under the sterile condition. When the tumors reached an appropriate size (100-200 mm^3), mice were randomized into 6 mice per group and treatment was initiated (day 1) according to Table 4. [table] The tumors sizes and animal body weights were measured twice a week. Tumor volumes were estimated from measurements of two diameters of the individual tumors as follows: Tumor Volume (mm^3)=(a×b^2)/2 Relative tumor volume (RTV) were calculated according to the follows: RTV=Vt/V1 where V1 and Vt were respectively the average tumor volume on the first day of treatment (day 1) and the average tumor volume on a certain time point (day T). Standard NCI procedures were used to calculate tumor parameters (Teicher, B. A. (2011). “Tumor Models in Cancer Research.” Second Edition, Human Press). Percent tumor growth inhibition (% T/C) was calculated as the mean RTV of treated tumors (T) divided by the mean RTV of control tumors (C)×100%. […] A body weight loss (mean of group) of greater than 20%, or greater than 20% of drug deaths are considered to indicate an excessively toxic dosage. The synergistic analysis was performed using the following formula described in Clarke R. Issues in experimental design and endpoint analysis in the study of experimental cytotoxic agents in vivo in breast cancer and other models[J]. Breast Cancer Research & Treatment, 1997, 46(2-3):255-278, which is incorporated by reference in its entirety: expected value=(A/C)×(B/C); actual value=(AB)/C; A: RTV of drug A; B: RTV of drug B; C=RTV of the vehicle control group; AB=RTV of the combination group. Ratio=expected/actual value. […] A ratio=1 indicates the two drugs have additive effects. A ratio <1 indicates the two drugs may have antagonist effects. According to the earlier publication (Gao, H., et al. (2015). “High-throughput screening using patient-derived tumor xenografts to predict clinical trial drug response” Nat Med 21: 1318), additional measurements of response included stable disease (SD), partial tumor regression (PR), and complete regression (CR) were determined by comparing tumor volume change at day t to its baseline: tumor volume change (%)=(Vt−V1)/V1. […] For each time t, the average of tumor volume change from t=1 to t was also calculated. […]
smiles,measurement,setting,value
"Cc1ccc(C(=O)Nc2ccc(CN3CCN(C)CC3)c(C(F)(F)F)c2)cc1C#Cc1cnc2[nH]ncc2c1 [Compound 23, 3-(2-(1H-pyrazolo[3,4-b]pyridin-5-yl)ethynyl)-4-methyl-N-(4-((4-methylpiperazin-1-yl)methyl)-3-(trifluoromethyl)phenyl)benzamide]",Tumor weight on D 22 (Mean ± SEM),"day 22, p.o. q2d × 22 d, vehicle 2.29 ± 0.29, in g (unit assumed)",0.67 ± 0.11
same,T/C(%)@D 22,"mean RTV treated/control, day 22, p.o. q2d",28.6%
same,RTV@D 22,"relative tumor volume day 22, p.o. q2d, vehicle 18.2 ± 3.3",5.2 ± 0.9
